Usually melting point stands for the temperature, or range, at which the solid turns liquid. The Ki is the dissociation constant of the complex between target and ligand, obtained from inhibition or displacement.

Data set [1] concerns the target T1, μ-opioid receptor (Rattus norvegicus, UniProt P33535).
T1 construct: from tissue; host or cells: rat (Wistar) forebrain homogenate, particulate preparation
Description: Rat brain μ-opioid receptor binding assay ([3H]DAMGO). The protocol: Male, Wistar rats (150–250 g, VAF, Chades River, Kingston, N.Y.) are killed by cervical dislocation and their brains removed and placed immediately in ice cold Tris HCl buffer (50 mM, pH 7.4). The forebrains are separated from the remainder of the brain by a coronal transection, beginning dorsally at the colliculi and passing ventrally through the midbrain-pontine junction. After dissection, the forebrains are homogenized in Tris buffer in a Teflon®-glass homogenizer. The homogenate is diluted to a concentration of 1 g of forebrain tissue per 100 mL Tris buffer and centrifuged at 39,000×G for 10 min. The pellet is resuspended in the same volume of Tris buffer with several brief pulses from a Polytron homogenizer. This particulate preparation is used for the μ-opioid binding assays. […] The tubes and filters are rinsed three times with 4 mL of 10 mM HEPES (pH 7.4) and the radioactivity associated with the filter circles determined using Formula 989 scintillation fluid (New England Nuclear, Boston, Mass.) in a scintillation counter.
The data are used to calculate either the % inhibition compared to control binding (when only a single concentration of test compound is evaluated) or a Ki value (when a range of concentrations is tested).
% Inhibition is calculated as: […]
(§1) Ki value is calculated using the LIGAND (Munson, P. J. and Rodbard, D., Anal. Biochem. 107: 220–239, 1980) data analysis program.

Data set [2] has as its target T2, δ-opioid receptor (Rattus norvegicus, UniProt P33533).
T2 construct: from tissue; host or cells: rat (Wistar) forebrain homogenate, particulate preparation
The data set can be described thus: Rat brain δ-opioid receptor binding assay ([3H]DPDPE). The settings on record: for δ-Opioid Receptor Binding, Inhibition at 1 μM: single concentration 1 μM. The protocol: Male, Wistar rats (150–250 g, VAF, Charles River, Kingston, N.Y.) are killed by cervical dislocation, and their brains removed and placed immediately in ice cold Tris HCl buffer (50 mM, pH 7.4). The forebrains are separated from the remainder of the brain by a coronal transection, beginning dorsally at the colliculi and passing ventrally through the midbrain-pontine junction. After dissection, the forebrains are homogenized in Tris buffer in a Teflon®-glass homogenizer. The homogenate is diluted to a concentration of 1 g of forebrain tissue per 100 mL Tris buffer and centrifuged at 39,000×G for 10 min. The pellet is resuspended in the same volume of Tris buffer with several brief pulses from a Polytron homogenizer. This particulate preparation is used for the δ-opioid binding assays. Following incubation with the δ-selective peptide ligand [^3H]DPDPE at 25° C., the tube contents are filtered through Whatman GF/B filter sheets on a Brandel cell harvester. The tubes and filters are rinsed three times with 4 mL of 10 mM HEPES (pH 7.4), and the radioactivity associated with the filter circles determined using Formula 989 scintillation fluid (New England Nuclear, Boston, Mass.) in a scintillation counter.
The data are used to calculate either the % inhibition compared to control binding (when only a single concentration of test compound is evaluated) or a Ki value (when a range of concentrations are tested).
% Inhibition was calculated as: […]
as §1

Data set [3] deals with acetylcholine bromide-induced abdominal constriction response. Description: Mouse acetylcholine bromide-induced abdominal constriction assay (MAIT). The following applies: 150 μmole/Kg p.o., acetylcholine bromide 5.5 mg/kg i.p. 30 min later. The class given is in vivo. The protocol: The mouse acetylcholine-induced abdominal constriction assay, as described by Collier et al. in Brit. […] The test drugs or appropriate vehicles were administered orally (p.o.) and 30 min later the animal received an intraperitoneal (i.p.) injection of 5.5 mg/kg acetylcholine bromide (Matheson, Coleman and Bell, East Rutherford, N.J.). The mice were then placed in groups of three into glass bell jars and observed for a ten min observation period for the occurrence of an abdominal constriction response (defined as a wave of constriction and elongation passing caudally along the abdominal wall, accompanied by a twisting of the trunk and followed by extension of the hind limbs). For compounds of the present invention, the percent inhibition of this response to a nociceptive stimulus (equated to °/analgesia) was calculated as follows:
[formula] • CAR: Control Animal Responses • DTAR: Drug-Treated Animal Responses

The mark [4] stands for this setting: rat forebrain membranes, [3H]DAMGO, 25° C., read-out: μ-Opioid Receptor Binding Ki.
Setting [5] is: rat forebrain membranes, [3H]DPDPE, 25° C., read-out: δ-Opioid Receptor Binding Ki.
[6] abbreviates: rat forebrain membranes, [3H]DPDPE.

Where a name gives a salt, the structure may show the parent alone. Read-outs that look alike come from different tables or passages of the source.

T2 sequence (P33533 whole entry): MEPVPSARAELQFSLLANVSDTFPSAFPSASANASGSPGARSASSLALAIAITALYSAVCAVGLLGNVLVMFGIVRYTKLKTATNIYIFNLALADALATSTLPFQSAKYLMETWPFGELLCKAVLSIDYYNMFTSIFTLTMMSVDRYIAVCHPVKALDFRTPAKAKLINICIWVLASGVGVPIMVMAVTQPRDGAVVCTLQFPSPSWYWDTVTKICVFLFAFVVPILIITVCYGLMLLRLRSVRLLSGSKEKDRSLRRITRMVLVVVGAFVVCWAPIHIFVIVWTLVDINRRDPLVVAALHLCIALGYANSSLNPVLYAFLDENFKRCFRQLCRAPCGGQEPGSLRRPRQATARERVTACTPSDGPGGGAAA
T1 sequence (P33535 whole entry): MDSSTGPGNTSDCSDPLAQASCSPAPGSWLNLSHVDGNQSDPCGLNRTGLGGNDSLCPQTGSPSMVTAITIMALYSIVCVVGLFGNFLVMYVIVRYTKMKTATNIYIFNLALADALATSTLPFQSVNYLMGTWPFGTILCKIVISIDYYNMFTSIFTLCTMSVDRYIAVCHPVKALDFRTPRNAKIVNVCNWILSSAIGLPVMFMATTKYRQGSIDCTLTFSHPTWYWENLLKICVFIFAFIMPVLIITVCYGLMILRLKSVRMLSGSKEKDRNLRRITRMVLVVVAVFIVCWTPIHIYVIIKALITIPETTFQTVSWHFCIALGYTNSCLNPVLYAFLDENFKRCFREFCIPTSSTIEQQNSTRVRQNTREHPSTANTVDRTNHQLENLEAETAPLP

For the compound `CCN(CC)C(=O)c1ccc(N(Cc2ccccc2)C2CN3CCC2CC3)cc1` (centres unmarked) (as salt: fumarate) (hydrate or solvate) [Compound 16, N,N-Diethyl-4-[phenylmethyl-(1-azabicyclo[2.2.2]octan-3-amino)]benzamide Fumarate Hydrate [1:1.5:1]], the melting point was in the range of 107 to 110 °C.
On to `CCN(CC)C(=O)c1ccc(N(Cc2ccccc2F)C2CN3CCC2CC3)cc1` (centres unmarked) (as salt: fumarate) (hydrate or solvate) [Compound 18], for which the melting point is 193 to 196 °C.
With `CCN(CC)C(=O)c1ccc(N(Cc2cccc(Cl)c2)C2CN3CCC2CC3)cc1` (centres unmarked) (as salt: fumarate) [Compound 17], the melting point lay in the range of 193 to 196 °C.
On to `CCN(CC)C(=O)c1ccc(N(c2ccccc2)[C@H]2C3CCN(CC3)[C@@H]2C)cc1` [Compound 8, N,N-Diethyl-4-[phenyl-(trans-2-methyl-1-azabicyclo[2.2.2]octan-3-amino)]benzamide Fumarate Hydrate [1:1:0.5]], for which the Ki in data set [1] (setting [4]) was found to be 1340 nM; in data set [2] (setting [5]), 26 nM.
Consider `CCN(CC)C(=O)c1ccc(N(Cc2ccccc2)C2CN3CCC2CC3)cc1` (centres unmarked) [Compound 16, N,N-Diethyl-4-[phenylmethyl-(1-azabicyclo[2.2.2]octan-3-amino)]benzamide Fumarate Hydrate [1:1.5:1]], for which the “MAIT % Inhibition” value in data set [3] was determined as 50%. In addition, the Ki in data set [1] amounted to 1920 nM; in data set [2] it was 50 nM.
In the case of `CCN(CC)C(=O)c1ccc(N(Cc2cccc(Cl)c2)C2CN3CCC2CC3)cc1` (centres unmarked) [Compound 17], the “MAIT % Inhibition” value in data set [3] worked out at 16.7%. The Ki in data set [1] is 914 nM; in data set [2], 21 nM.
In the case of `CCN(CC)C(=O)c1ccc(N(Cc2ccccc2F)C2CN3CCC2CC3)cc1` (centres unmarked) [Compound 18], the “MAIT % Inhibition” value in data set [3] amounted to 28.6%. The Ki came out at 1160 nM in data set [1] and 39 nM in data set [2].
In the same order, the values of `CCN(CC)C(=O)c1ccc(N(Cc2cccc(F)c2)C2CN3CCC2CC3)cc1` (centres unmarked) [Compound 19] are 18.2%, 1120 nM and 5.5 nM.
Taken in the same sequence, the figures for `CCN(CC)C(=O)c1ccc(N(Cc2ccccc2)[C@H]2CN3CCC2CC3)cc1` [Compound 20, (−)-(R)-N,N-Diethyl-4-[phenylmethyl-(1-azabicyclo[2.2.2]octan-3-amino)]benzamide Fumarate Hydrate [1:1.5:1]] were 57.1%, 1240 nM and 11 nM.
In the case of `CCN(CC)C(=O)c1ccc(N(Cc2ccccc2)[C@@H]2CN3CCC2CC3)cc1` [Compound 21, (+)-(S)-N,N-Diethyl-4-[phenylmethyl-(1-azabicyclo[2.2.2]octan-3-amino)]benzamide Fumarate Hydrate [1:1.5:1]], the “MAIT % Inhibition” value in data set [3] is 35.720%. Moreover, the figures for the Ki in data set [1] and in data set [2] were 2550 nM and 20 nM, respectively.
Take “N,N-Diethyl-4-[(3,5-dichlorophenyl)-(1-azabicyclo[2.2.2]octan-3-amino)]benzamide Hydrochloride [Compound 7, N,N-Diethyl-4-[(3,5-dichlorophenyl)-(1-azabicyclo[2.2.2]octan-3-amino)]benzamide Hydrochloride [1:1]]”: in data set [2] (setting [6]), the “δ-Opioid Receptor Binding, Inhibition at 1 μM” value is <50%.
Consider “N,N-Diethyl-4-[(3-thiomethylphenyl)-(trans-2-methyl-1-azabicyclo[2.2.2]octan-3-amino)]benzamide Fumarate [Compound 10, N,N-Diethyl-4-[(3-thiomethylphenyl)-(trans-2-methyl-1-azabicyclo[2.2.2]octan-3-amino)]benzamide Fumarate [1:1.5]]”, for which the “MAIT % Inhibition” value in data set [3] worked out at 25%.
Take “N,N-Diethyl-4-[(3-trifluoromethylphenyl)-(1-azabicyclo[2.2.2]octan-3-amino)]benzamide Hydrochloride [Compound 4, N,N-Diethyl-4-[(3-trifluoromethylphenyl)-(1-azabicyclo[2.2.2]octan-3-amino)]benzamide Hydrochloride [1:1]]”: the “δ-Opioid Receptor Binding, Inhibition at 1 μM” value in data set [2] (setting [6]) was <50%.
Regarding “N,N-Diethyl-4-[phenyl-(1-azabicyclo[2.2.2]octan-3-amino)]-3-chlorobenzamide Fumarate [Compound 13, N,N-Diethyl-4-[phenyl-(1-azabicyclo[2.2.2]octan-3-amino)]-3-chlorobenzamide Fumarate [1:1]]”, the Ki in data set [2] (setting [5]) amounted to 880 nM.
Take “N,N-Diethyl-4-[phenyl-(1-azabicyclo[2.2.2]octan-3-amino)]-3-fluorobenzamide Fumarate [Compound 11, N,N-Diethyl-4-[phenyl-(1-azabicyclo[2.2.2]octan-3-amino)]-3-fluorobenzamide Fumarate [1:1]]”: the Ki was 8330 nM in data set [1] (setting [4]) and 255 nM in data set [2] (setting [5]).
For “N,N-Diethyl-4-[phenyl-(1-azabicyclo[2.2.2]octan-3-amino)]-3-methylbenzamide Fumarate [Compound 12, N,N-Diethyl-4-[phenyl-(1-azabicyclo[2.2.2]octan-3-amino)]-3-methylbenzamide Fumarate [1:1]]”, the Ki in data set [1] (setting [4]) amounted to 10000 nM; in data set [2] (setting [5]) it was 608 nM.
With “N,N-Diethyl-4-[phenyl-(1-azabicyclo[2.2.2]octan-3-amino)]benzamide Fumarate [Compound 1, N,N-Diethyl-4-[phenyl-(1-azabicyclo[2.2.2]octan-3-amino)]benzamide Fumarate [1:1]]”, the “MAIT % Inhibition” value in data set [3] was 55.6%.
Consider “N,N-Diethyl-4-[phenyl-(cis-2-methyl-1-azabicyclo[2.2.2]octan-3-amino)]benzamide [Compound 9]”, for which the “MAIT % Inhibition” value in data set [3] came to 20%.
As for “N-Morpholino-4-[phenyl-(1-azabicyclo[2.2.2]octan-3-amino)]benzamide Fumarate [Compound 15, N-Morpholino-4-[phenyl-(1-azabicyclo[2.2.2]octan-3-amino)]benzamide Fumarate [1:1]]”, the “δ-Opioid Receptor Binding, Inhibition at 1 μM” value in data set [2] (setting [6]) is <50%.
The same measure, in the same setting: the figure for “N-pyrrolidinyl-4-[(4-methoxyphenyl)-(1-azabicyclo[2.2.2]octan-3-amino)]benzamide Fumarate [Compound 14, N-pyrrolidinyl-4-[(4-methoxyphenyl)-(1-azabicyclo[2.2.2]octan-3-amino)]benzamide Fumarate [1:1]]” is <50%.
